Data: article PMC9779606, “Synthesis, Structural Characterization and Biological Activity Evaluation of Novel Cu(II) Complexes with 3-(trifluoromethyl)phenylthiourea Derivatives” (International Journal of Molecular Sciences, 2022)

Tests used:
M. tuberculosis H37Rv = assay: Tuberculostatic activity, Microplate Alamar Blue Assay (MABA); assay type: cell-based, Mycobacterium tuberculosis; conditions: M. tuberculosis H37Rv, standard strain, MABA
[1] = system: M. tuberculosis Spec. 192; assay: as above; assay type: cell-based, Mycobacterium tuberculosis; conditions: M. tuberculosis Spec. 192, patient isolate fully sensitive to tuberculostatics, MABA
[2] = system: Bacillus subtilis H17 (rec+); conditions: B. subtilis H17 (rec+); 256 µg per 9 mm disc (NOQ 2 µg per disc)
Protocol: (§1) DNA-damaging activity of compounds was tested by rec-assay using two genetically modified Bacillus subtilis strains: M45 (rec^−) and H17 (rec^+). Tested compounds were dissolved in DMSO, and 10 µL of each solution was dripped onto sterile cotton discs (Rotilabo) to load 256 µg of a given compound per 9 mm disc. Discs were placed on the surface Nutrient agar plates (Difco) inoculated with 100 µL of bacterial overnight culture and incubated for 24 h at 35 °C. After incubation, the growth inhibition zones were measured. […] Results of the genotoxicity test were estimated after 18 h of incubation at 35 °C by comparing the diameter of the inhibition zone on the B. subtilis M45 (rec^−) strain with that on the B. subtilis H17 (rec^+) strain.

[3] = system: Bacillus subtilis M45 (rec−); conditions: B. subtilis M45 (rec−); 256 µg per 9 mm disc (NOQ 2 µg per disc)
Protocol: as §1

S. aureus 537 = assay: MIC, hospital methicillin-resistant strains (MRSA); conditions: hospital MRSA strain S. aureus 537
S. aureus 567 = assay: MIC, hospital methicillin-resistant strains (MRSA); conditions: hospital MRSA strain S. aureus 567
S. aureus 568 = assay: MIC, hospital methicillin-resistant strains (MRSA); conditions: hospital MRSA strain S. aureus 568
S. aureus 585 = assay: MIC, hospital methicillin-resistant strains (MRSA); conditions: hospital MRSA strain S. aureus 585
S. aureus 495 = assay: MIC, hospital methicillin-resistant strains (MRSA); conditions: hospital MRSA strain S. aureus 495
S. aureus 496 = assay: MIC, hospital methicillin-resistant strains (MRSA); conditions: hospital MRSA strain S. aureus 496
S. aureus 497 = assay: MIC, hospital methicillin-resistant strains (MRSA); conditions: hospital MRSA strain S. aureus 497
S. aureus 514 = assay: MIC, hospital methicillin-resistant strains (MRSA); conditions: hospital MRSA strain S. aureus 514
S. aureus 522 = assay: MIC, hospital methicillin-resistant strains (MRSA); conditions: hospital MRSA strain S. aureus 522
S. aureus 572 = assay: MIC, hospital methicillin-resistant strains (MRSA); conditions: hospital MRSA strain S. aureus 572
S. aureus 481 = assay: MIC, hospital methicillin-resistant strains (MRSA); conditions: hospital MRSA strain S. aureus 481
S. epidermidis 420 = assay: MIC, hospital methicillin-resistant strains (MRSE); conditions: hospital MRSE strain S. epidermidis 420
S. epidermidis 469 = assay: MIC, hospital methicillin-resistant strains (MRSE); conditions: hospital MRSE strain S. epidermidis 469
S. epidermidis 515 = assay: MIC, hospital methicillin-resistant strains (MRSE); conditions: hospital MRSE strain S. epidermidis 515
S. epidermidis 431 = assay: MIC, hospital methicillin-resistant strains (MRSE); conditions: hospital MRSE strain S. epidermidis 431
S. epidermidis 432 = assay: MIC, hospital methicillin-resistant strains (MRSE); conditions: hospital MRSE strain S. epidermidis 432
S. aureus ATCC 6538 = assay: MIC, twofold serial microdilution, standard strains; conditions: S. aureus ATCC 6538, standard strain
S. epidermidis 436 = assay: MIC, hospital methicillin-resistant strains (MRSE); conditions: hospital MRSE strain S. epidermidis 436
S. epidermidis 437 = assay: MIC, hospital methicillin-resistant strains (MRSE); conditions: hospital MRSE strain S. epidermidis 437
S. epidermidis 513 = assay: MIC, hospital methicillin-resistant strains (MRSE); conditions: hospital MRSE strain S. epidermidis 513
[4] = system: S. epidermidis ATCC 12228; assay: MIC, twofold serial microdilution, standard strains; conditions: S. epidermidis ATCC 12228, standard strain
[5] = system: S. epidermidis ATCC 35984; assay: as above; conditions: S. epidermidis ATCC 35984, standard strain
E. coli NCTC 10538 = assay: as above; conditions: E. coli NCTC 10538, standard strain
P. aeruginosa ATCC 15442 = assay: as above; conditions: P. aeruginosa ATCC 15442, standard strain
C. albicans ATCC 10231 = assay: MIC, twofold serial microdilution, standard fungal strains; conditions: C. albicans ATCC 10231, standard strain
C. albicans ATCC 90028 = assay: as above; conditions: C. albicans ATCC 90028, standard strain
[6] = system: C. parapsilosis ATCC 22019; assay: as above; conditions: C. parapsilosis ATCC 22019, standard strain

SMILES	MIC (M. tuberculosis H37Rv)	MIC [1]	Genotoxic activity, inhibition zone diameter, H17 [2]	Genotoxic activity, inhibition zone diameter, M45 [3]	MIC (S. aureus 537)	MIC (S. aureus 567)	MIC (S. aureus 568)	MIC (S. aureus 585)	MIC (S. aureus 495)	MIC (S. aureus 496)	MIC (S. aureus 497)	MIC (S. aureus 514)	MIC (S. aureus 522)	MIC (S. aureus 572)	MIC (S. aureus 481)	MIC (S. epidermidis 420)	MIC (S. epidermidis 469)	MIC (S. epidermidis 515)	MIC (S. epidermidis 431)	MIC (S. epidermidis 432)	other results
FC(F)(F)c1cccc([N-]C(=S)Nc2cccc(Br)c2)c1.FC(F)(F)c1cccc([N-]C(=S)Nc2cccc(Br)c2)c1.[Cu+2] [Cu4, Copper(II) Complex with 1-(3-bromophenyl)-3-[3-(trifluoromethyl)phenyl] thiourea]	4 µg/mL	4 µg/mL	15 mm	17 mm	8 µg/mL	8 µg/mL	8 µg/mL	8 µg/mL	8 µg/mL	8 µg/mL	8 µg/mL	8 µg/mL	8 µg/mL	8 µg/mL	8 µg/mL	8 µg/mL	8 µg/mL	8 µg/mL	8 µg/mL	8 µg/mL	MIC (S. aureus ATCC 6538): 4 µg/mL; MIC (S. epidermidis 436): 8 µg/mL; MIC (S. epidermidis 437): 8 µg/mL; MIC (S. epidermidis 513): 8 µg/mL; MIC [4]: 8 µg/mL; MIC [5]: 8 µg/mL; MIC (E. coli NCTC 10538): 128 µg/mL; MIC (P. aeruginosa ATCC 15442): ≥256 µg/mL; MIC (C. albicans ATCC 10231): ≥256 µg/mL; MIC (C. albicans ATCC 90028): ≥256 µg/mL; MIC [6]: ≥256 µg/mL
O.O=[N+]([O-])c1cc(NC(=S)[N-]c2cccc(C(F)(F)F)c2)ccc1Cl.O=[N+]([O-])c1cc(NC(=S)[N-]c2cccc(C(F)(F)F)c2)ccc1Cl.[Cu+2] [Cu5, Copper(II) Complex with 1-(4-chloro-3-nitrophenyl)-3-[3-(trifluoromethyl)phenyl]thiourea]	4 µg/mL	4 µg/mL	18 mm	17 mm	4 µg/mL	2 µg/mL	2 µg/mL	4 µg/mL	2 µg/mL	2 µg/mL	2 µg/mL	2 µg/mL	2 µg/mL	2 µg/mL	2 µg/mL	4 µg/mL	4 µg/mL	4 µg/mL	2 µg/mL	2 µg/mL	MIC (S. aureus ATCC 6538): 4 µg/mL; MIC (S. epidermidis 436): 2 µg/mL; MIC (S. epidermidis 437): 2 µg/mL; MIC (S. epidermidis 513): 2 µg/mL; MIC [4]: 4 µg/mL; MIC [5]: 4 µg/mL; MIC (E. coli NCTC 10538): >256 µg/mL; MIC (P. aeruginosa ATCC 15442): 128 µg/mL; MIC (C. albicans ATCC 10231): 128 µg/mL; MIC (C. albicans ATCC 90028): 128 µg/mL; MIC [6]: 128 µg/mL
